Experimental data as given in patent US20240208961A1, “EIF4E INHIBITORS AND USES THEREOF” (PIC Therapeutics, Inc., priority 2022, published 2024).
“And” between values parts separate entries of the source, which are not always exact repeats. Equal values may be shown once. Read-outs that look alike come from different tables or passages of the source.

Experiments:
ZR-75-1 = experiment: Cell viability assay, adherent cell line, 5 day Alamar Blue (Example 8): ZR-75-1; format: cell-based; details: Homo sapiens, 120 h, ZR-75-1, Breast Cancer Cell Viability
[1] = Pharmacokinetic studies of certain compounds in female Balb/c mice (Example 5); format: in vivo
How it was run: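 Female Balb/c mice (N=9) were fasted overnight and given compound PO as a suspension in 1% CMC/0.2% Tween 80 or IV in 5% DMSO/5% Solutol HS15/90% saline. Facial-vein plasma was taken from 0.083 to 24 h and assayed by LC-MS. Parameters are non-compartmental, and F was based on AUCINF or AUClast.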

[2] = I-3 IV 1 mg/kg, 24 hr, BQL = below quantifiable limit of 1.00 ng/mL

Plasma concentration Individual ([1]; I-3 IV 1 mg/kg, 0.083 hr, 1 mg/kg): 1790 ng/mL and 2660 ng/mL
Plasma concentration Individual ([1]; I-3 IV 1 mg/kg, 0.25 hr, 1 mg/kg): 633 ng/mL and 539 ng/mL
Plasma concentration Individual ([1]; I-3 IV 1 mg/kg, 0.5 hr, 1 mg/kg): 292 ng/mL and 352 ng/mL
Plasma concentration Individual ([1]; I-3 IV 1 mg/kg, 1 hr, 1 mg/kg): 101 ng/mL and 116 ng/mL
Plasma concentration Individual ([1]; I-3 IV 1 mg/kg, 2 hr, 1 mg/kg): 35.6 ng/mL and 28.1 ng/mL
Plasma concentration Individual ([1]; I-3 IV 1 mg/kg, 4 hr, 1 mg/kg): 7.05 ng/mL and 7.52 ng/mL and 21.3 ng/mL
Plasma concentration Individual ([1]; I-3 IV 1 mg/kg, 8 hr, BQL = below quantifiable limit of 1.00 ng/mL, 1 mg/kg): BQL
Plasma concentration Individual [1, 2]: BQL
Plasma concentration Mean [1, 2]: BQL
F ([1]; I-3 PO 30 mg/kg vs IV 1 mg/kg): 36.0%
Plasma concentration Individual ([1]; I-3 PO 30 mg/kg, 0.083 hr, 30 mg/kg): 69.9 ng/mL and 44.9 ng/mL
Plasma concentration Individual ([1]; I-3 PO 30 mg/kg, 0.25 hr, 30 mg/kg): 420 ng/mL and 461 ng/mL
Plasma concentration Individual ([1]; I-3 PO 30 mg/kg, 0.5 hr, 30 mg/kg): 1920 ng/mL and 1840 ng/mL
Plasma concentration Individual ([1]; I-3 PO 30 mg/kg, 1 hr, 30 mg/kg): 1520 ng/mL and 1760 ng/mL
Plasma concentration Individual ([1]; I-3 PO 30 mg/kg, 2 hr, 30 mg/kg): 1530 ng/mL and 1800 ng/mL
Plasma concentration Individual ([1]; I-3 PO 30 mg/kg, 4 hr, 30 mg/kg): 896 ng/mL and 860 ng/mL
Plasma concentration Individual ([1]; I-3 PO 30 mg/kg, 8 hr, 30 mg/kg): 124 ng/mL and 186 ng/mL
Plasma concentration Individual ([1]; I-3 PO 30 mg/kg, 24 hr, 30 mg/kg): 10.6 ng/mL and 4.10 ng/mL and 3.10 ng/mL
concentration at 0.083 hr ([1]; female, Balb/c, mouse, plasma, iv, 1 mg/kg, I-3 IV 1 mg/kg, 0.083 hr, read-out: Plasma concentration Individual): 1910 ng/mL
concentration at 0.083 hr ([1]; female, Balb/c, mouse, plasma, iv, 1 mg/kg, I-3 IV 1 mg/kg, 0.083 hr, read-out: Plasma concentration Mean): 2120 ng/mL
concentration at 0.25 hr ([1]; female, Balb/c, mouse, plasma, iv, 1 mg/kg, I-3 IV 1 mg/kg, 0.25 hr, read-out: Plasma concentration Individual): 511 ng/mL
concentration at 0.25 hr ([1]; female, Balb/c, mouse, plasma, iv, 1 mg/kg, I-3 IV 1 mg/kg, 0.25 hr, read-out: Plasma concentration Mean): 561 ng/mL
concentration at 0.5 h ([1]; female, Balb/c, mouse, plasma, iv, 1 mg/kg, I-3 IV 1 mg/kg, 0.5 hr, read-out: Plasma concentration Individual): 246 ng/mL
concentration at 0.5 h ([1]; female, Balb/c, mouse, plasma, iv, 1 mg/kg, I-3 IV 1 mg/kg, 0.5 hr, read-out: Plasma concentration Mean): 297 ng/mL
concentration at 1 h ([1]; female, Balb/c, mouse, plasma, iv, 1 mg/kg, I-3 IV 1 mg/kg, 1 hr, read-out: Plasma concentration Individual): 111 ng/mL
concentration at 1 h ([1]; female, Balb/c, mouse, plasma, iv, 1 mg/kg, I-3 IV 1 mg/kg, 1 hr, read-out: Plasma concentration Mean): 109 ng/mL
concentration at 2 h ([1]; female, Balb/c, mouse, plasma, iv, 1 mg/kg, I-3 IV 1 mg/kg, 2 hr, read-out: Plasma concentration Individual): 28.7 ng/mL
concentration at 2 h ([1]; female, Balb/c, mouse, plasma, iv, 1 mg/kg, I-3 IV 1 mg/kg, 2 hr, read-out: Plasma concentration Mean): 30.8 ng/mL
concentration at 4 h ([1]; female, Balb/c, mouse, plasma, iv, 1 mg/kg, I-3 IV 1 mg/kg, 4 hr, read-out: Plasma concentration Mean): 12 ng/mL
concentration at 8 h ([1]; female, Balb/c, mouse, plasma, iv, 1 mg/kg, I-3 IV 1 mg/kg, 8 hr, BQL = below quantifiable limit of 1.00 ng/mL, read-out: Plasma concentration Individual): 1.62 ng/mL
concentration at 8 h ([1]; female, Balb/c, mouse, plasma, iv, 1 mg/kg, I-3 IV 1 mg/kg, 8 hr, BQL = below quantifiable limit of 1.00 ng/mL, read-out: Plasma concentration Mean): 1.62 ng/mL
concentration at 0.083 hr ([1]; female, Balb/c, mouse, plasma, po, 30 mg/kg, I-3 PO 30 mg/kg, 0.083 hr, read-out: Plasma concentration Individual): 56.7 ng/mL
concentration at 0.083 hr ([1]; female, Balb/c, mouse, plasma, po, 30 mg/kg, I-3 PO 30 mg/kg, 0.083 hr, read-out: Plasma concentration Mean): 57.2 ng/mL
concentration at 0.25 hr ([1]; female, Balb/c, mouse, plasma, po, 30 mg/kg, I-3 PO 30 mg/kg, 0.25 hr, read-out: Plasma concentration Individual): 453 ng/mL
concentration at 0.25 hr ([1]; female, Balb/c, mouse, plasma, po, 30 mg/kg, I-3 PO 30 mg/kg, 0.25 hr, read-out: Plasma concentration Mean): 445 ng/mL
concentration at 0.5 hr ([1]; female, Balb/c, mouse, plasma, po, 30 mg/kg, I-3 PO 30 mg/kg, 0.5 hr, read-out: Plasma concentration Individual): 1950 ng/mL
concentration at 0.5 hr ([1]; female, Balb/c, mouse, plasma, po, 30 mg/kg, I-3 PO 30 mg/kg, 0.5 hr, read-out: Plasma concentration Mean): 1900 ng/mL
concentration at 1 hr ([1]; female, Balb/c, mouse, plasma, po, 30 mg/kg, I-3 PO 30 mg/kg, 1 hr, read-out: Plasma concentration Individual): 1490 ng/mL
concentration at 1 hr ([1]; female, Balb/c, mouse, plasma, po, 30 mg/kg, I-3 PO 30 mg/kg, 1 hr, read-out: Plasma concentration Mean): 1590 ng/mL
concentration at 2 hr ([1]; female, Balb/c, mouse, plasma, po, 30 mg/kg, I-3 PO 30 mg/kg, 2 hr, read-out: Plasma concentration Individual): 1750 ng/mL
concentration at 2 hr ([1]; female, Balb/c, mouse, plasma, po, 30 mg/kg, I-3 PO 30 mg/kg, 2 hr, read-out: Plasma concentration Mean): 1690 ng/mL
concentration at 4 hr ([1]; female, Balb/c, mouse, plasma, po, 30 mg/kg, I-3 PO 30 mg/kg, 4 hr, read-out: Plasma concentration Individual): 991 ng/mL
concentration at 4 hr ([1]; female, Balb/c, mouse, plasma, po, 30 mg/kg, I-3 PO 30 mg/kg, 4 hr, read-out: Plasma concentration Mean): 916 ng/mL
concentration at 8 hr ([1]; female, Balb/c, mouse, plasma, po, 30 mg/kg, I-3 PO 30 mg/kg, 8 hr, read-out: Plasma concentration Individual): 182 ng/mL
concentration at 8 hr ([1]; female, Balb/c, mouse, plasma, po, 30 mg/kg, I-3 PO 30 mg/kg, 8 hr, read-out: Plasma concentration Mean): 164 ng/mL
concentration at 24 hr ([1]; female, Balb/c, mouse, plasma, po, 30 mg/kg, I-3 PO 30 mg/kg, 24 hr, read-out: Plasma concentration Mean): 5.93 ng/mL
AUC(0-inf) ([1]; mouse, plasma, I-3 IV 1 mg/kg): 834 ng·h/mL
AUC(0-t) ([1]; mouse, plasma, I-3 IV 1 mg/kg): 831 ng·h/mL
C0 ([1]; mouse, plasma, I-3 IV 1 mg/kg): 4100 ng/mL
MRT inf ([1]; mouse, plasma, I-3 IV 1 mg/kg): 0.58 h
MRT last ([1]; mouse, plasma, I-3 IV 1 mg/kg): 0.542 h
clearance ([1]; mouse, plasma, I-3 IV 1 mg/kg): 20 mL/min/kg
half-life ([1]; mouse, plasma, I-3 IV 1 mg/kg): 84.6 min
Vd ([1]; mouse, plasma, I-3 IV 1 mg/kg, read-out: Vss): 0.695 L/kg
AUC(0-inf) ([1]; mouse, plasma, I-3 PO 30 mg/kg): 9000 ng·h/mL
AUC(0-t) ([1]; mouse, plasma, I-3 PO 30 mg/kg): 8980 ng·h/mL
Cmax ([1]; mouse, plasma, I-3 PO 30 mg/kg): 1900 ng/mL
MRT inf ([1]; mouse, plasma, I-3 PO 30 mg/kg): 3.62 h
MRT last ([1]; mouse, plasma, I-3 PO 30 mg/kg): 3.55 h
Tmax ([1]; mouse, plasma, I-3 PO 30 mg/kg): 30 min
half-life ([1]; mouse, plasma, I-3 PO 30 mg/kg): 166 min
SMILES: CC(C)Cc1sc(Nc2ncc(-c3cccs3)cc2C(=O)O)nc1C1CCCCC1 [Compound I-3]
IC50 (ZR-75-1): ≤ 1000 nM
